Results published in patent publication US10940139B2, “Compounds that interact with the Ras superfamily for the treatment of cancers, inflammatory diseases, rasopathies, and fibrotic disease” (Shy Therapeutics LLC, priority 2017, dated 2021).

How the values were obtained:
[1] = target: KRas G12D/Q61H double mutant (Homo sapiens (Human), UniProt P01116, G12D/Q61H); assay: Ras GTP binding domain inhibition assay (labeled GTP); conditions: at 20 μM; read-out: KRas G12D Q61H % Inh.
Summary of the method: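 Labelled-GTP binding: plate-captured His-KRas protein was pre-exposed to compound for 3 h at room temperature (single 20 μM point or dilution series, 1% DMSO, Tris pH 7.5/MgCl2/DTT buffer). Cy3- or Cy5-GTP was then added for 45 min. Washed wells were read for retained fluorescence to give inhibition or IC50.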

Rho-A = Rho-A (Homo sapiens (Human), UniProt P61586); assay: Rho inhibition assay (labeled GTP); assay type: binding; conditions: read-out: Rho-A % Inh.
Rac-1 = Rac-1 (Homo sapiens (Human), UniProt P63000); assay: Rac inhibition assay (labeled GTP); assay type: binding; conditions: read-out: Rac-1 % Inh.
KRas G12D mutant protein = KRas G12D mutant protein (Homo sapiens (Human), UniProt P01116, G12D); assay: Ras GTP binding domain inhibition assay (labeled GTP); conditions: at 20 μM; read-out: KRas G12D % Inh.
Chain of KRas G12D mutant protein (P01116-2 other isoform, or with tags, fused parts or gaps G12D): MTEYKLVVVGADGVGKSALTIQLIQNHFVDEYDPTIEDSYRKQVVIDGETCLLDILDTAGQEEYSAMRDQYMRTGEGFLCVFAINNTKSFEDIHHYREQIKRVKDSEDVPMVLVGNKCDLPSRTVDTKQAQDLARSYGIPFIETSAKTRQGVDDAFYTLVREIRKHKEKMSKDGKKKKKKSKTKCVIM

Chain of Rho-A (P61586 whole entry): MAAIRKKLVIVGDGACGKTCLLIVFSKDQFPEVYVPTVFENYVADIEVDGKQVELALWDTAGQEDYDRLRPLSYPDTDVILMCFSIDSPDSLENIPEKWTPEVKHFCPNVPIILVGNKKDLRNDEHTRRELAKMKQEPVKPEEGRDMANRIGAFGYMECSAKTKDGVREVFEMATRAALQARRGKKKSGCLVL
Chain of KRas G12D/Q61H double mutant (P01116-2 other isoform, or with tags, fused parts or gaps G12D/Q61H): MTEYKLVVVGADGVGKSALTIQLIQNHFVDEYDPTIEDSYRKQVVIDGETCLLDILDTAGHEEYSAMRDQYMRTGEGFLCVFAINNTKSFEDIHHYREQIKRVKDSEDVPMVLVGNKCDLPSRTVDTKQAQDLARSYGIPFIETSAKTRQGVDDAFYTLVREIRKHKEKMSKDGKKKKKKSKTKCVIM

Structure (SMILES)	inhibition at 20 µM [1] [%]	inhibition at 20 µM (Rho-A) [%]	inhibition at 20 µM (Rac-1) [%]	inhibition at 20 µM (KRas G12D mutant protein) [%]
Oc1nc(-c2ccccn2)nc2c(-c3ccccc3F)csc12 [drawing 3740]	51 to 75	76 to 100	76 to 100	51 to 75
COc1ccccc1-c1csc2c(O)nc(-c3ccccn3)nc12 [drawing 3742]	25 to 50	51 to 75	76 to 100	51 to 75
Oc1nc(-c2ccccn2)nc2c(-c3ccc(F)cc3F)csc12 [drawing 3743]	51 to 75	51 to 75	51 to 75	51 to 75
COc1cccc(-c2csc3c(O)nc(-c4ccccn4)nc23)c1 [drawing 3744]	25 to 50	51 to 75	51 to 75	76 to 100
Oc1nc(-c2ccccn2)nc2c(-c3cccc(C(F)(F)F)c3)csc12 [drawing 3745]	25 to 50	25 to 50	51 to 75	51 to 75
COc1ccc(F)cc1-c1csc2c(O)nc(-c3ccccn3)nc12 [drawing 3746]	51 to 75	51 to 75	51 to 75	51 to 75
Oc1nc(-c2ccccn2)nc2c(-c3ccsc3)csc12 [drawing 3747]	25 to 50	51 to 75	76 to 100	51 to 75
Oc1nc(-c2ccccn2)nc2c(-c3ccc(OC(F)F)cc3F)csc12 [drawing 3748]	51 to 75	76 to 100	76 to 100	51 to 75
Oc1nc(-c2ccccn2)nc2c(-c3ccc4c(c3)OCO4)csc12 [drawing 3751]	51 to 75	51 to 75	76 to 100	51 to 75
CC(C)(O)c1ccc(-c2csc3c(O)nc(-c4ccccn4)nc23)c(F)c1 [drawing 3752]	51 to 75	51 to 75	76 to 100	51 to 75
COc1ccc(-c2csc3c(O)nc(-c4ccccn4)nc23)c(C)c1 [drawing 3753]	51 to 75	76 to 100	76 to 100	51 to 75
CNC(=O)c1ccc(-c2csc3c(O)nc(-c4ccccn4)nc23)cc1C [drawing 3757]	25 to 50	51 to 75	51 to 75	25 to 50
OCC1(c2ccc(-c3csc4c(O)nc(-c5ccccn5)nc34)cc2)CC1 [drawing 3758]	51 to 75	76 to 100	76 to 100	76 to 100
Cc1cnccc1-c1csc2c(O)nc(-c3ccccn3)nc12 [drawing 3760]	51 to 75	76 to 100	76 to 100	51 to 75
O=C(CCn1ccnc1)Nc1nc(-c2ccccn2)nc2sccc12 [drawing 3761]	51 to 75	76 to 100	76 to 100	76 to 100
O=C(CCc1nn[nH]n1)Nc1nc(-c2ccccn2)nc2sccc12 [drawing 3762]	51 to 75	76 to 100	76 to 100	51 to 75
O=C(CCc1cncnc1)Nc1nc(-c2ccccn2)nc2sccc12 [drawing 3763]	51 to 75	76 to 100	76 to 100	51 to 75
Oc1nc(-c2ccccn2)nc2c(-c3ccccn3)csc12 [drawing 3768]	1 to 25	51 to 75	51 to 75	25 to 50

Structure (SMILES)	inhibition at 20 µM [1] [%]	inhibition at 20 µM (Rho-A) [%]	inhibition at 20 µM (Rac-1) [%]	inhibition at 20 µM (KRas G12D mutant protein) [%]
CN1CCN(c2nc(-c3ccccn3)nc3scc(C(=O)NCCc4cnc(O)nc4)c23)CC1 [drawing 3771]	25 to 50	51 to 75	51 to 75	51 to 75
Oc1nc(-c2ccccn2)nc2c(-c3cc(F)cc(F)c3)csc12 [drawing 3772]	51 to 75	51 to 75	51 to 75	51 to 75
CN(C)Cc1ccc(F)c(-c2csc3c(O)nc(-c4ccccn4)nc23)c1 [drawing 3773]	25 to 50	76 to 100	51 to 75	51 to 75
Cc1sc2c(O)nc(-c3ccccn3)nc2c1-c1ccccc1 [drawing 3777]	51 to 75	51 to 75	51 to 75	51 to 75
Cc1sc2c(O)nc(-c3ccccn3)nc2c1-c1cccnc1 [drawing 3786]	25 to 50	25 to 50	51 to 75	51 to 75
COc1cnc(-c2ccccn2)nc1O [drawing 3787]	51 to 75	76 to 100	76 to 100	51 to 75
COc1nc(-c2ccccn2)nc2c(C3CCCC3)csc12 [drawing 3789]	51 to 75	51 to 75	76 to 100	25 to 50
Cc1c(C(=O)O)sc2c(O)nc(-c3ccccn3)nc12 [drawing 3794]	51 to 75	51 to 75	76 to 100	25 to 50
Oc1nc(-c2ccccn2)nc2c(C3CCC3)csc12 [drawing 3797]	51 to 75	76 to 100	76 to 100	51 to 75
CC(C)Oc1cnc(-c2ccccn2)nc1O [drawing 3800]	51 to 75	76 to 100	76 to 100	51 to 75
Oc1nc(-c2ccccn2)nc2c(CC3CCNCC3)csc12 [drawing 3805]	51 to 75	76 to 100	51 to 75	51 to 75
CC(C)c1csc2c(O)nc(-c3ccccn3)nc12 [drawing 3806]	51 to 75	51 to 75	51 to 75	51 to 75
COc1ccc(CCC(=O)Nc2nc(-c3ccccn3)nc3sccc23)cn1 [drawing 3812]	51 to 75	76 to 100	76 to 100	51 to 75
CC(C)Cc1csc2c(O)nc(-c3ccccn3)nc12 [drawing 3813]	51 to 75	76 to 100	76 to 100	51 to 75
Oc1nc(-c2ccccn2)nc2c(C3CCCC3)csc12 [drawing 3814]	51 to 75	76 to 100	76 to 100	51 to 75
COc1cnc(-c2cn(C)cn2)nc1O [drawing 3815]	51 to 75	76 to 100	76 to 100	51 to 75
Cc1sc2c(O)nc(-c3ccccn3)nc2c1-c1ccncc1 [drawing 3816]	51 to 75	25 to 50	51 to 75	51 to 75
Oc1cccc(-c2csc3c(O)nc(-c4ccccn4)nc23)n1 [drawing 3817]	51 to 75	76 to 100	76 to 100	51 to 75
